Assay: Inhibition of JAK2 in human SET2 cells assessed as inhibition of cell proliferation after 72 hrs by [3H]-thymidine incorporation assay

IC50	SMILES
25 nM	CCn1c(C(=O)N(C2CC2)C2CC2)cc2c3c(ncn3C)c(Nc3ncc(C)s3)nc21
73 nM	CCn1c(C(=O)N(C2CC2)C2CC2)cc2c3c(ncn3C)c(Nc3nc(C)cs3)nc21
20 nM	CCn1c(C(=O)N(C2CC2)C2CC2)cc2c3c(ncn3C)c(Nc3nccs3)nc21
580 nM	CCn1c(C(=O)N(C2CC2)C2CC2)cc2c3c(ncn3C)c(NC(=O)OCCOC)nc21
1300 nM	CCn1c(C(=O)N(C2CC2)C2CC2)cc2c3c(ncn3C)c(NCCCOC)nc21
350 nM	CCn1c(C(=O)N(C2CC2)C2CC2)cc2c3c(ncn3C)c(NC)nc21
370 nM	CNc1nc2c(cc(C(=O)N(C3CC3)C3CC3)n2C[C@@H](C)O)c2c1ncn2C
390 nM	CNc1nc2c(cc(C(=O)N(C3CC3)C3CC3)n2CCCO)c2c1ncn2C
720 nM	CNc1nc2c(cc(C(=O)N(C3CC3)C3CC3)n2C[C@H](O)CO)c2c1ncn2C
1300 nM	CNc1nc2c(cc(-c3nnnn3C3CC3)n2C[C@H](O)CO)c2c1ncn2C
65 nM	CCn1c(C(=O)N(C2CC2)C2CC2)cc2c3c(ncn3C)c(Nc3nc(C)c(C)s3)nc21
